Laboratory results from patent publication US20240208997A1, “CYCLIC BENZIMIDAZOLE DERIVATIVES AS CGAS INHIBITORS” (Boehringer Ingelheim International GmbH, priority 2022, published 2024).

These compounds were tested against cGAS (Homo sapiens, UniProt Q8N884) (assay: Human cGAS enzyme assay (hcGAS IC50, in vitro), cGAMP formation by RapidFire MS). Settings: Table 1; 45 bp dsDNA-activated enzyme.
cGAS, sequence (Q8N884 whole entry): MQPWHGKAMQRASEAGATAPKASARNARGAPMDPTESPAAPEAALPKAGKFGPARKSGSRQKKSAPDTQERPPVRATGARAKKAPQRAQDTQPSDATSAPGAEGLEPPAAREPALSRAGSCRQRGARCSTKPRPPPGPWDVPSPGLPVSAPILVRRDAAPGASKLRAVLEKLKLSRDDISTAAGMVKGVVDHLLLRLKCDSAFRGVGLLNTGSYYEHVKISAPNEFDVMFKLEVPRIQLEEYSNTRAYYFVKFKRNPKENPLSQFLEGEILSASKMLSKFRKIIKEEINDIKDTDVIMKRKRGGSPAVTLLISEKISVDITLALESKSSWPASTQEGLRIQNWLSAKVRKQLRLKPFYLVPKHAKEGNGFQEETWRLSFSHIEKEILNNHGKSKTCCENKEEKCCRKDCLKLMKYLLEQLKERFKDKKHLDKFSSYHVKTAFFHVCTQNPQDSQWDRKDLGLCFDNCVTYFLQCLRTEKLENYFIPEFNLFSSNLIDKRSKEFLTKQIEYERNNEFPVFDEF
Format: biochemical
Design: HumancGAS (amino acid 1-522) with an N-terminal 6×-His-tag and SUMO-tag; 6xHis (N); SUMO (N); made in house; host or cells: E. coli BL21(DE3) pLysS
Method: 6.1 Method: Human cGAS Enzyme Assay (hcGAS IC50 (In Vitro))
Human cGAS enzyme was incubated in the presence of a 45 base pair double stranded DNA to activate the enzyme and GTP and ATP as substrates. Compound activity was determined by measuring the effect of compounds on the formation of the product of the enzyme reaction, cGAMP, which is measured by a mass spectrometry method.
HumancGAS (amino acid 1-522) with an N-terminal 6×-His-tag and SUMO-tag was expressed in E. coli BL21(DE3) pLysS (Novagen) cells for 16 h at 18° C. Cells were lysed in buffer containing 25 mM Tris (pH 8), 300 mM NaCl, 10 mM imidazole, 10% glycerol, protease inhibitor cocktail (cOmplete™, EDTA-free, Roche) and DNase (5 μg/mL). […] Purified protein was concentrated to 1.7 mg/mL and stored at −80° C.
Compounds were delivered in 10 mM DMSO solution, serially diluted and transferred to the 384 well assay plate (Greiner #781201) using an Echo acoustic dispenser. Typically, 8 concentrations were used with the highest concentration at 10 μM in the final assay volume followed by ^˜1:5 dilution steps. DMSO concentration was set to 1% in the final assay volume. The 384 well assay plate contained 22 test compounds (column 1-22), and DMSO in column 23 and 24.
After the compound transfer, 15 μL of the enzyme-DNA-working solution (12 nM cGAS, 0.32 μM 45base pair DNA in assay buffer, 10 mM Tris pH 7.5/10 mM KCl/5 mM MgCl2/1 mM DTT) were added to each well from column 1-23 via a MultiDrop Combi dispenser. In column 24, 15 μl of assay buffer without enzyme/DNA were added as a low control.
The plates were then pre-incubated for 60 min at room temperature.
Following that, 10 μL of GTP (ThermoFisher #R0461)-ATP (Promega #V915B) mix in assay buffer were added to the assay plate (columns 1-24, 30 μM final concentration each) using a Multidrop Combi.
The plates were incubated again for 90 min at room temperature.
Following the incubation, the reaction was stopped by 80 μL of 0,1% formic acid in assay buffer containing 5 nM cyclic-di-GMP (Sigma #SML1228) used as internal standard for the mass spectrometry. The total volume/well was 105 μL.
The plates were centrifuged at 4000 rpm, 4° C., for 5 min.
The RapidFire autosampler was coupled to a binary pump (Agilent 1290) and a Triple Quad 6500 (ABSciex, Toronto, Canada). […] Aspiration time: 250 ms; Load time: 3000 ms; Elute time: 3000 ms; Wash volume: 500 μL.
The MS was operated in positive ion mode with HESI ion source, with a source temperature of 550 C, curtain gas=35, gas 1=65, and gas 2=80. Unit mass resolution in SRM mode. The following transitions and MS parameters (DP: declustering potential and CE: collision energy) for cGAMP and DicGMP were determined:
Internal standard: cyclic-di-GMP at 690.1/540, DP=130, CE=30.
The formation of cGAMP was monitored and evaluated as ratio to cyclic-di-GMP.
Data Evaluation and Calculation:
For data evaluation and calculation, the measurement of the low control was set as 0% control and the measurement of the high control was set as 100% control. The IC50 values were calculated using the standard 4 parameter logistic regression formula. Calculation: [y=(a−d)/(1+(x/c)^b)+d], a=low value, d=high value; x=conc M; c=1C50 M; b=slope
`C[C@@H]1CN2CC[C@H]1n1c(nc3ccccc31)O[C@H]1C[C@@H](C(=O)O)N(C1)c1nc(nc3c1oc1ccccc13)CCCCCOC2=O` [Example 10.01] gave an IC50 of 54 nM. Work on `C[C@H]1CN2CC[C@@H]1n1c(nc3ccccc31)O[C@H]1C[C@@H](C(=O)O)N(C1)c1nc(nc3c1oc1ccccc13)CCCCCOC2=O` [Example 10.02] yielded an IC50 of 34 nM. Compound `O=C(O)[C@@H]1C[C@H]2CN1c1nc(nc3c1oc1ccccc13)OCCCCOC(=O)N1CCC(CC1)n1c(nc3ccccc31)O2` [Example 11.01] has an IC50 of 10 nM. With `C[C@H]1CN2CC[C@@H]1n1c(nc3ccccc31)O[C@H]1C[C@@H](C(=O)O)N(C1)c1nc(nc3c1oc1ccccc13)CCCCCN(C)C2=O` [Example 13.01] the IC50 was 34 nM.
